The source of these data is patent US11459327B1, “Cycloalkyl and hetero-cycloalkyl inhibitors, preparation methods therefor, and use thereof” (Suzhou Zelgen Biopharmaceuticals Co., Ltd., priority 2019, dated 2022).

In assay [1] the test system is NCI-H358(KRAS^G12C mutation) cells. Briefly: Cell assay of antiproliferative activity (Celltiter-Glo, 5 days) against NCI-H358 cells. The assay is classed as cell-based. The settings on record: 5 days incubation. Here is the method:
(§1) Cell assay of antiproliferative activity of compounds against NCI-H358(KRAS^G12C mutation) and A549(KRAS^G12S mutation) cells.
(§2) 40 μl phosphate buffer was added to the outer wells of the 384 microplate, and 40 μl cell suspension to be tested was added to the other wells. Then the microplate was incubated in a carbon dioxide incubator overnight.
(§3) The compounds to be tested were gradiently diluted, each compound was performed 10 concentration gradients (diluted from 50 μM to 0.003 μM) and added 100 nL to the corresponding wells in the microplate. After addition, 40 μl of phosphate buffer was added to each well in rows A and P and columns 1 and 24, and then the microplate was incubated in a carbon dioxide incubator for 5 days.
(§4) 20 μL of Promega Celltiter-Glo reagent was added to each well of the microplate, and then the luminescence signal was stabilized by oscillating at room temperature for 10 min. Then PekinElmer Envision multi-label analyzer was used to read.
(§5) Finally, GraphPad Prism software was used to calculate the IC50 value of the compound and the fitting curve was drawn.
(§6) Anti-proliferative activity of the compounds of the present invention against NCI-H358(KRAS^G12C mutation) and A549(KRAS^G12S mutation) cells were shown in Table 1.

In assay [2] the test system is A549(KRAS^G12S mutation) cells. Kind of assay: Cell assay of antiproliferative activity (Celltiter-Glo, 5 days) against A549 cells. The assay is classed as cell-based. The settings on record: 5 days incubation. Here is the method: as §1, §2, §3, §4, §5, §6
Background: Cellular ATP, detected with luciferase, serves as a proxy for viable cell number.

Regarding `C=CC(=O)N1CCN(c2nc(OC[C@@H](COC)N(C)C3CCC3)nc3c2CCN(c2cccc4cccc(C)c24)C3)CC1CC#N` (stereo partly drawn) [Example 1, 2-(1-acroloyl-4-(2-((R)-2-(cyclobutyl(methyl)amino)-3-methoxypropoxy)-7-(8-methylnaphthalen-1-yl)-5,6,7,8-tetrahydropyrido[3,4-d]pyrimidin-4-yl)piperazin-2-yl) acetonitrile], the IC50 (usually the concentration that gives 50% inhibition) amounted to 220 nM in assay [1] (Homo sapiens, NCI-H358, 120 h) and 7100 nM in assay [2] (Homo sapiens, 120 h).
On the same counts, the results for `C=CC(=O)N1CCN(c2nc(OCC3(CN(C)C)CC3)nc3c2CCN(c2cccc4cccc(Cl)c24)C3)CC1CC#N` (stereo not drawn) [Example 2, 2-(1-acroloyl-4-(7-(8-chloronaphthalen-1-yl)-2-((1-((dimethylamino)methyl)cyclopropyl)methoxyl)-5,6,7,8-tetrahydropyrido[3,4-d]pyrimidin-4-yl)piperazin-2-yl) acetonitrile] are 7.8 nM and 4300 nM.
On the same counts, the results for `C=CC(=O)N1CCN(c2nc(OCC3(CN(C)C)CCC3)nc3c2CCN(c2cccc4cccc(Cl)c24)C3)CC1CC#N` (stereo not drawn) [Example 3, 2-(1-acroloyl-4-(7-(8-chloronaphthalen-1-yl)-2-((1-((dimethylamino)methyl)cyclobutyl)methoxyl)-5,6,7,8-tetrahydropyrido[3,4-d]pyrimidin-4-yl)piperazin-2-yl) acetonitrile] are 39 nM and 7100 nM.
For the molecule `C=CC(=O)N1CCN(c2nc(OCCN(C)CC3(F)CC3)nc3c2CCN(c2cccc4cccc(C)c24)C3)CC1CC#N` (stereo not drawn) [Example 4], the concentration for half-maximal inhibition (IC50) in assay [1] turned out to be 210 nM; in assay [2] (Homo sapiens, 120 h) it was 9500 nM.
Regarding `C=CC(=O)N1CCN(c2nc(OCCN(CCOC)C3CCC3)nc3c2CCN(c2cccc4cccc(Cl)c24)C3)CC1CC#N` (stereo not drawn) [Example 5], the IC50 in assay [1] (Homo sapiens, NCI-H358, 120 h) was 60 nM; in assay [2] (Homo sapiens, 120 h), 7100 nM.
On to `C=CC(=O)N1CCN(c2nc(OCCN(C)CC3CC3(F)F)nc3c2CCN(c2cccc4cccc(Cl)c24)C3)CC1CC#N` (stereo not drawn) [Example 6], for which the IC50 in assay [1] (Homo sapiens, NCI-H358, 120 h) was 110 nM; in assay [2] (Homo sapiens, 120 h) it was 9900 nM.
With `C=CC(=O)N1CCN(c2nc(OCCN(C)C3COC3)nc3c2CCN(c2cccc4cccc(C)c24)C3)CC1CC#N` (stereo not drawn) [Example 7, 2-(1-acroloyl-4-(2-(2-(methyl(cyclobutoxy-3-yl)amino)ethyoxyl)-7-(8-methylnaphthalen-1-yl)-5,6,7,8-tetrahydropyrido[3,4-d]pyrimidin-4-yl)piperazin-2-yl) acetonitrile], the IC50 was 72 nM in assay [1] (Homo sapiens, NCI-H358, 120 h) and 8200 nM in assay [2] (Homo sapiens, 120 h).
On the same counts, the results for `C=CC(=O)N1CCN(c2nc(OC[C@H](CC)N(C)C3CCC3)nc3c2CCN(c2cccc4cccc(Cl)c24)C3)CC1CC#N` (stereo partly drawn) [Example 8, 2-(1-acroloyl-4-(7-(8-chloronaphthalen-1-yl)-2-((S)-2-(cyclobutyl (methyl)amino)butyloxy)-5,6,7,8-tetrahydropyrido[3,4-d]pyrimidin-4-yl)piperazin-2-yl) acetonitrile] are 130 nM and 7040 nM.
For `C=CC(=O)N1CCN(c2nc(OC[C@H](C(C)C)N(C)C3CCC3)nc3c2CCN(c2cccc4cccc(Cl)c24)C3)CC1CC#N` (stereo partly drawn) [Example 9, 2-(1-acroloyl-4-(7-(8-chloronaphthalen-1-yl)-2-((S)-2-(cyclobutyl(methyl)amino)-3-methylbutyloxy)-5,6,7,8-tetrahydropyrido[3,4-d]pyrimidin-4-yl)piperazin-2-yl) acetonitrile], in that order: 160 nM and 17700 nM.
On the same counts, the results for `C=CC(=O)N1CCN(c2nc(OCCN(CC(F)(F)F)C3CCC3)nc3c2CCN(c2cccc4cccc(Cl)c24)C3)CC1CC#N` (stereo not drawn) [Example 10, 2-(1-acroloyl-4-(7-(8-chloronaphthalen-1-yl)-2-(2-(cyclobutyl(2,2,2-trifluoroethyl)amino)ethoxy)-5,6,7,8-tetrahydropyrido[3,4-d]pyrimidin-4-yl)piperazin-2-yl) acetonitrile] are 6500 nM and 17400 nM.
For the molecule `C=C(F)C(=O)N1CCN(c2nc(OCCN(C)C3CCC3)nc3c2CCN(c2cccc4cccc(Cl)c24)C3)CC1CC#N` (stereo not drawn) [Example 11, 2-(4-(7-(8-chloronaphthalen-1-yl)-2-(2-(cyclobutyl(methyl)amino)ethoxy)-5,6,7,8-tetrahydropyrido[3,4-d]pyrimidin-4-yl)-1-(2-fluoroacroloyl)piperazin-2-yl) acetonitrile], the IC50 in assay [1] (Homo sapiens, NCI-H358, 120 h) amounted to 110 nM; in assay [2] (Homo sapiens, 120 h), 3200 nM.
On the same counts, the results for `C=C(F)C(=O)N1CCN(c2nc(OC[C@H](C)N(C)C3CCC3)nc3c2CCN(c2cccc4cccc(Cl)c24)C3)CC1CC#N` (stereo partly drawn) [Example 12] are 140 nM and 2300 nM.
On the same counts, the results for `C=CC(=O)N1CCN(c2nc(O[C@@H]3CCC[C@@H]3N(C)C)nc3c2CCN(c2cccc4cccc(Cl)c24)C3)CC1CC#N` (stereo partly drawn) [Example 15, 2-(1-acroloyl-4-(7-(8-chloronaphthalen-1-yl)-2-(((cis)-2-(dimethylamino)cyclopentyl)oxy)-5,6,7,8-tetrahydropyrido[3,4-d]pyrimidin-4-yl)piperazin-2-yl) acetonitrile] are 90 nM and 13500 nM.
As for `C=CC(=O)N1CCN(c2nc(OCC3(CN(C)C)COC3)nc3c2CCN(c2cccc4cccc(Cl)c24)C3)CC1CC#N` (stereo not drawn) [Example 19, 2-(1-acroloyl-4-(7-(8-chloronaphthalen-1-yl)-2-((3-((dimethylamino)methyl)oxetan-3-yl)methoxyl)-5,6,7,8-tetrahydropyrido[3,4-d]pyrimidin-4-yl)piperazin-2-yl) acetonitrile], the IC50 turned out to be 4.6 nM in assay [1] and 8900 nM in assay [2].
With `C=CC(=O)N1CCN(c2nc(OCC3(COC)CC3)nc3c2CCN(c2cccc4cccc(Cl)c24)C3)CC1CC#N` (stereo not drawn) [Example 20, 2-(1-acroloyl-4-(7-(8-chloronaphthalen-1-yl)-2-((1-(methoxymethyl)cyclopropyl)methoxyl)-5,6,7,8-tetrahydropyrido[3,4-d]pyrimidin-4-yl)piperazin-2-yl) acetonitrile], the IC50 in assay [1] (Homo sapiens, NCI-H358, 120 h) was 870 nM; in assay [2] (Homo sapiens, 120 h), 7700 nM.
In the case of `C=C(F)C(=O)N1CCN(c2nc(OCC3(CN(C)CCOC)CC3)nc3c2CCN(c2cccc4cccc(Cl)c24)C3)C[C@@H]1CC#N` [Example 69], the IC50 in assay [1] (Homo sapiens, NCI-H358, 120 h) turned out to be 59 nM.
`C=CC(=O)N1CCN(c2nc(OCCN(C)CC3(F)CC3)nc3c2CCN(c2cccc4cccc(C)c24)C3)CC1CC#N` (stereo not drawn) [Example 80, 2-(1-acroloyl-4-(2-(2-(((1-fluorocyclopropyl)methyl) (methyl)amino)ethoxy)-7-(8-methylnaphthalen-1-yl)-5,6,7,8-tetrahydropyrido[3,4-d]pyrimidin-4-yl)piperazin-2-yl) acetonitrile] displayed an IC50 in assay [1] of less than 100 nM.
In the case of `C=CC(=O)N1CCN(c2nc(OCCN(C)C3CC(F)(F)C3)nc3c2CCN(c2cccc4cccc(C)c24)C3)CC1CC#N` (stereo not drawn) [Example 85], the IC50 in assay [1] (Homo sapiens, NCI-H358, 120 h) is less than 100 nM.
In turn, `C=CC(=O)N1CCN(c2nc(OC[C@H](C)N(C)C3CCC3)nc3c2CCN(c2cccc4cccc(C)c24)C3)C[C@@H]1CC#N` [Example 91A, 2-((S)-1-acroloyl-4-(2-((S)-2-(cyclobutyl(methyl)amino)propoxy)-7-(8-methylnaphthalen-1-yl)-5,6,7,8-tetrahydropyrido[3,4-d]pyrimidin-4-yl)piperazin-2-yl) acetonitrile] showed an IC50 in assay [1] of less than 30 nM.
Regarding `C=CC(=O)N1CCN(c2nc(OC[C@H](C)N(C)C3CCC3)nc3c2CCN(c2cccc4cccc(C)c24)C3)C[C@H]1CC#N` [Example 91B, 2-((R)-1-acroloyl-4-(2-((S)-2-(cyclobutyl(methyl)amino)propoxy)-7-(8-methylnaphthalen-1-yl)-5,6,7,8-tetrahydropyrido[3,4-d]pyrimidin-4-yl)piperazin-2-yl) acetonitrile], the half-inhibitory concentration (IC50) in assay [1] is less than 1000 nM.
For `C=CC(=O)N1CCN(c2nc(OC[C@@H](C)N(C)C3CCC3)nc3c2CCN(c2cccc4cccc(C)c24)C3)CC1CC#N` (stereo partly drawn) [Example 92, 2-(1-acroloyl-4-(2-((R)-2-(cyclobutyl(methyl)amino)propoxy)-7-(8-methylnaphthalen-1-yl)-5,6,7,8-tetrahydropyrido[3,4-d]pyrimidin-4-yl)piperazin-2-yl) acetonitrile], in assay [1] (Homo sapiens, NCI-H358, 120 h), the IC50 was less than 100 nM.
Still for that read-out and setting: the figure for `C=CC(=O)N1CCN(c2nc(OCCN(C)CC3CC3)nc3c2CCN(c2cccc(F)c2C(F)(F)F)C3)CC1` [Example 95] is 6260 nM.
`C=C(F)C(=O)N1CCN(c2nc(OCC3(CN(C)C)CC3)nc3c2C[C@H](C)N(c2cccc4ccc(F)c(Cl)c24)C3)C[C@@H]1CC#N` [Example 96A, 2-((S)-4-((S)-7-(8-chloro-7-fluoronaphthalen-1-yl)-2-((1-((dimethylamino)methyl)cyclopropyl)methoxy)-6-methyl-5,6,7,8-tetrahydropyrido[3,4-d]pyrimidin-4-yl)-1-(2-fluoroacroloyl)piperazin-2-yl) acetonitrile] returned an IC50 in assay [1] of 191 nM.
Still for that read-out and setting: the figure for `C=C(F)C(=O)N1CCN(c2nc(OCC3(CN(C)C)CC3)nc3c2C[C@@H](C)N(c2cccc4ccc(F)c(Cl)c24)C3)C[C@@H]1CC#N` [Example 96B, 2-((S)-4-((R)-7-(8-chloro-7-fluoronaphthalen-1-yl)-2-((1-((dimethylamino)methyl)cyclopropyl)methoxy)-6-methyl-5,6,7,8-tetrahydropyrido[3,4-d]pyrimidin-4-yl)-1-(2-fluoroacroloyl)piperazin-2-yl) acetonitrile] is 5 nM.
